Data: article PMC8469962, “Unusual Bicyclo[3.2.1]Octanoid Neolignans from Leaves of Piper crocatum and Their Effect on Pyruvate Dehydrogenase Activity” (Plants, 2021)
Entries after “also recorded” stand apart in the source; their conditions may differ.

System: PDHE1α S300 phosphorylation
Assay: Pyruvate dehydrogenase complex (PDH) cellular activity: immunofluorescence of p-PDH E1α (Ser300) in AD-293 cells
Type: cell-based, Human
Conditions: for IC50: Homo sapiens, AD293, 24 h incubation, normalized to 5 mM DCA control, read-out: IC50, inhibition of PDHE1α S300 phosphorylation; for inhibition of phosphorylation of E1α S300 in fluorescent images, compared with DCA: compounds at 60 µM, DCA at 5 mM
Method: Point two percent gelatin was added to a black 96-well plate with a clear bottom and incubated for 1 h. Afterwards, the plate was washed with growth media. Human AD-293 cells, derived from the HEK293 cells, were seeded into black 96-well plates with a clear bottom and grown for 24 h. Compounds were then added and incubated for 24 h. The cells were then fixed with 2% paraformaldehyde, and permeabilized anti-PDHE1 pSer300 (Merk Millipore, Burlington, MA, AP1064) was added and incubated overnight. Next, the cells were washed and Alexa fluor 488, goat anti-rabbit ab (Invitrogen, Waltham, MA, A11008) was added with Hoechst 33,258 (Invitrogen, H3569) and incubated for 2 h. Finally, cells were washed, and the plates were measured in Operetta (PerkinElmer, Waltham, MA). The raw data were normalized for the pharmacological inhibitor control (5 mM dichloroacetate (DCA)) and percentage effect values using the software package Harmony High-Content Imaging and Analysis Software 3.1. Dose response curves were generated by plotting the percentage effect values and IC50 values were calculated via GraphPad Prism 6.

SMILES: C=CCC12C=C(OC)C(=O)C(OC)(C(c3cc(OC)c(OC4OC(CO)C(O)C(O)C4O)c(OC)c3)C1C)C2O [Compound 2, (1′R,2′R,3′S,7S,8R)-∆^5′^,8′-2′-hydroxy-3,5,3′,5′-tetramethoxyl-4′-oxo-8.1′7.3′-neolignan-4-O-β-D-glucopyranoside]
- IC50: 99.8 µM
- inhibition of phosphorylation of E1α S300 in fluorescent images, compared with DCA: better effect than that of dichloroacetate (DCA); also recorded: better inhibitory effect of compound 2 than that of compound 3 and DCA

SMILES: C=CCC1=CC2(OC)C(C)C(c3cc(OC)c(OC4OC(CO)C(O)C(O)C4O)c(OC)c3)C(OC)(C1=O)C2O [Compound 3, (1′R,2′S,3′R,7S,8R)-∆^5′^8′-2′-hydroxy-3,5,1′,3′-tetramethoxyl-4′-oxo-8.1′7.3′-neolignan-4-O-β-D-glucopyranoside]
- IC50: 80.2 µM
- inhibition of phosphorylation of E1α S300 in fluorescent images, compared with DCA: better effect than that of dichloroacetate (DCA)
